According to US12358948B2, “Neurotensinergic agonists and methods of using same preventing or treating pain” (priority 2019, dated 2025):
*1 amine or outer side, *2 acyl side, *3 side chain or, on linkers, in order; H or OH if unused. Where a SMILES comes first, the peptide text is derived from it. Bridges are numbered along the chain shown (N, C = ends). [ ]: non-standard residue; d: D form. ξ: configuration not given here. ξαMeNle(6-ylidene) = CC(CCCC=[*:3])(N[*:1])C(=O)[*:2]; Ala(E-styryl) = N[C@@H](C/C=C/c1ccccc1)C(=O)O; Bip = N[C@@H](Cc1ccc(-c2ccccc2)cc1)C(=O)O; Phe(4-Br) = N[C@@H](Cc1ccc(Br)cc1)C(=O)O; Dip = N[C@H](C(=O)O)C(c1ccccc1)c1ccccc1; Bta = N[C@@H](Cc1csc2ccccc12)C(=O)O; dAllylGly = C=CC[C@@H](N)C(=O)O; dTic = O=C(O)[C@H]1Cc2ccccc2CN1; AllylGly = C=CC[C@H](N)C(=O)O; Cba = N[C@@H](CC1CCC1)C(=O)O; S5 = C=CCCC[C@](C)(N)C(=O)O; Nle = CCCC[C@H](N)C(=O)O; Orn = NCCC[C@H](N)C(=O)O; Dab = NCC[C@H](N)C(=O)O

Legend:
hNTS2 receptor = biological target: T1, hNTS2 receptor (Homo sapiens, UniProt O95665); assay: Competitive radioligand binding assay on the hNTS2 receptor; details: for IC50: displacement of 125I-[Tyr3]-NT, membranes of 1321N1 cells expressing hNTS2, read-out: IC50 NTS2 (converted); for Selectivity: ratio IC50 for NTS1 : IC50 for NTS2
T1 construct: membranes prepared from them
T1 sequence (O95665 whole entry): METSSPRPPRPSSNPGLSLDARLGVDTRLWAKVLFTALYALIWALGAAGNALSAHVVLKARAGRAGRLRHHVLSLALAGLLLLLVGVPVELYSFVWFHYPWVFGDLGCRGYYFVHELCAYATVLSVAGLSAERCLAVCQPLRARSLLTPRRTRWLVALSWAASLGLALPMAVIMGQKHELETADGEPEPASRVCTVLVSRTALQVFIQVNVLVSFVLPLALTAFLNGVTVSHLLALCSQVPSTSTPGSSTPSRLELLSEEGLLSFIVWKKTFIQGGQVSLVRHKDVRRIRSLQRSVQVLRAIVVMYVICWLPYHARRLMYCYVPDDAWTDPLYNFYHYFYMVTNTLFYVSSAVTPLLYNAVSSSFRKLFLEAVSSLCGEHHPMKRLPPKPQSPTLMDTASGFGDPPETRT
In short: (§1)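 IC50 values came from one-site competition curves against ¹²⁵I-[Tyr³]-NT after 60 min at 25 °C (pH 7.5 Tris, 0.2% BSA), with analogues at 10⁻¹¹–10⁻⁴ M and nonspecific binding set by 10⁻⁵ M NT(8-13). hNTS1 used 15 µg CHO-K1 membranes with […] tracer; hNTS2 used 50 µg 1321N1 membranes with […] tracer.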

hNTS1 receptor = biological target: T2, hNTS1 receptor (Homo sapiens, UniProt P30989); assay: Competitive radioligand binding assay on the hNTS1 receptor; details: displacement of 125I-[Tyr3]-NT, membranes of CHO-K1 cells expressing hNTS1; read-out: IC50 NTS1
T2 construct: membranes prepared from them
T2 sequence (P30989 whole entry): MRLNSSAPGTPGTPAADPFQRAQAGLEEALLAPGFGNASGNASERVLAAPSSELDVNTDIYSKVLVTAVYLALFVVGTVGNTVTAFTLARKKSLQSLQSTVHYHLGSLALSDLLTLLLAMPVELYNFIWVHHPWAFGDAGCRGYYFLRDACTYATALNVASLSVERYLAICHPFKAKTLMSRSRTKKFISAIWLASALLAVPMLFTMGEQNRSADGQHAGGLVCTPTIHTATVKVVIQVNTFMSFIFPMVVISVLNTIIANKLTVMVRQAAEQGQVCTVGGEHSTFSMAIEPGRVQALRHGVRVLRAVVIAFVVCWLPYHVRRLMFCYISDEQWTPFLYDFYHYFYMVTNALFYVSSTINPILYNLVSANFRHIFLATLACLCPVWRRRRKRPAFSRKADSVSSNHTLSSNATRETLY
In short: as §1

Row | SMILES | IC50 (hNTS2 receptor) [µM] | Selectivity (hNTS2 receptor) | IC50 (hNTS1 receptor) [µM]
1 | CC(C)[C@H](NC(=O)[C@H](Cc1ccc(O)cc1)NC(=O)[C@@H]1CC=CC[C@H](N)C(=O)N[C@@H](CCCCN)C(=O)N[C@@H](CCCCN)C(=O)N1)C(=O)O [compound 33, c[G(All)KKG(All)]YV] (H-[AllylGly]KK[AllylGly]YV-OH; staple 1-4) | 79.8 | >1.25 | > 100
2 | CC(C)C[C@H](NC(=O)[C@H](Cc1ccc(O)cc1)NC(=O)[C@@H]1CC=CC[C@H](N)C(=O)N[C@@H](CCCCN)C(=O)N[C@H](CCCCN)C(=O)N1)C(=O)O [compound 54, c[G(All)KK*G(All)]YL] (H-[AllylGly]K[dK][AllylGly]YL-OH; staple 1-4) | 0.321 | >311.9 | > 100
3 | NCCCC[C@@H]1NC(=O)[C@H](CCCCN)NC(=O)[C@@H](N)CC=CC[C@@H](C(=O)N[C@@H](Cc2ccc(O)cc2)C(=O)N[C@@H](CC2CCC2)C(=O)O)NC1=O [compound 66, c[G(All)KKG(All)]YA(cyclobutyl)] (H-[AllylGly]KK[AllylGly]Y[Cba]-OH; staple 1-4) | 0.0272 | >3682 | > 100
4 | CC(C)C[C@H](NC(=O)[C@H](Cc1ccc(O)cc1)NC(=O)[C@@H]1CC=CC[C@H](N)C(=O)N[C@H](Cc2c[nH]cn2)C(=O)N[C@@H](CCCCN)C(=O)N1)C(=O)O [compound 84, c[G(All)H*KG(All)]YL] (H-[AllylGly][dH]K[AllylGly]YL-OH; staple 1-4) | 0.646 | >154.9 | > 100
5 | CC(C)C[C@H](NC(=O)[C@H](Cc1ccc(O)cc1)NC(=O)[C@@H]1CC=CC[C@H](N)C(=O)N[C@@H](CCCCN)C(=O)N[C@@H](CCCN)C(=O)N1)C(=O)O [compound 51, c[G(All)KOrnG(All)]YL] (H-[AllylGly]K[Orn][AllylGly]YL-OH; staple 1-4) | 0.0703 | >1422 | > 100
6 | CCCC[C@@H]1NC(=O)[C@@H](N)CC=CC[C@@H](C(=O)N[C@@H](Cc2ccc(O)cc2)C(=O)N[C@@H](CC(C)C)C(=O)O)NC(=O)[C@H](CCCCN)NC1=O [compound 85, c[G(All)NleKG(All)]YL] (H-[AllylGly][Nle]K[AllylGly]YL-OH; staple 1-4) | 1.07 | >93 | > 100
7 | CC(C)C[C@H](NC(=O)[C@H](Cc1ccc(O)cc1)NC(=O)[C@@H]1CC=CCCC[C@](C)(N)C(=O)N[C@@H](CCCCN)C(=O)N[C@@H](CCCCN)C(=O)N1)C(=O)O [compound 89, c[G(alpha-Me-(4-Pentenyl))KKG(All)]YL] (H-[S5]KK[AllylGly]YL-OH; staple 1-4) | 0.0132 | >7553 | > 100
8 | CC(C)C[C@H](NC(=O)[C@H](Cc1ccc(Br)cc1)NC(=O)C1(C)CCCC=CC[C@H](N)C(=O)N[C@@H](CCCCN)C(=O)N[C@@H](CCCCN)C(=O)N1)C(=O)O (stereo partly drawn) [compound 130, c[G(All)KKG(alpha-Me-(4-pentenyl))]F(4-bromo)L] (H-[AllylGly]KK[ξαMeNle(6-ylidene)][Phe(4-Br)]L-OH; staple 1-4) | 0.0102 | 9843 | > 100
9 | CC(C)C[C@H](NC(=O)[C@H](Cc1ccc(O)cc1)NC(=O)[C@H]1CC=CC[C@@H](N)C(=O)N[C@@H](CCCCN)C(=O)N[C@@H](CCCCN)C(=O)N1)C(=O)O [compound 42, c[G*(All)KKG*(All)]YL] (H-[dAllylGly]KK[dAllylGly]YL-OH; staple 1-4) | 2.3 | >42 | > 100
10 | CC(C)C[C@H](NC(=O)[C@H](Cc1ccc(O)cc1)NC(=O)[C@@H]1CC(=O)NCCCC[C@H](N)C(=O)N[C@@H](CCCCN)C(=O)N[C@@H](CCCCN)C(=O)N1)C(=O)O [compound 97, c[KKKD]YL] (H-KKKDYL-OH; lactam 1-4) | 1.02 | >98.4 | > 100
11 | CC(C)C[C@H](NC(=O)[C@H](Cc1ccc(O)cc1)NC(=O)[C@@H]1CC(=O)NCC[C@H](N)C(=O)N[C@@H](CCCCN)C(=O)N[C@@H](CCCCN)C(=O)N1)C(=O)O [compound 95, c[DabKKD]YL] (H-[Dab]KKDYL-OH; lactam 1-4) | 8.81 | >11.4 | > 100
12 | CC(C)C[C@H](NC(=O)[C@H](Cc1ccc(Br)cc1)NC(=O)[C@@H]1CC=CCCC(=O)N[C@@H](CCCCN)C(=O)N[C@@H](CCCCN)C(=O)N1)C(=O)O [compound 131, c[K(pentenoyl)KG(All)](4-bromo)L] | 0.0274 | 3650 | > 100
13 | CC(C)C[C@H](NC(=O)[C@@H](CCCCN)NC(=O)[C@@H]1CC=CC[C@H](N)C(=O)N[C@@H](CCCCN)C(=O)N[C@@H](CCCCN)C(=O)N1)C(=O)O [compound 48, c[G(All)KKG(All)]K*L] (H-[AllylGly]KK[AllylGly][dK]L-OH; staple 1-4) | 10.1 | >10 | > 100

More lines, now with the values ahead:

Row | IC50 (hNTS2 receptor) [µM] | Selectivity (hNTS2 receptor) | IC50 (hNTS1 receptor) [µM] | SMILES
14 | 10 | 10 | > 100 | CC(C)C[C@H](NC(=O)[C@H]1Cc2ccccc2CN1C(=O)[C@@H]1CC=CC[C@H](N)C(=O)N[C@@H](CCCCN)C(=O)N[C@@H](CCCCN)C(=O)N1)C(=O)O [compound 163, c[G(All)KKG(All)]G(Tic)L] (H-[AllylGly]KK[AllylGly][dTic]L-OH; staple 1-4)
15 | 0.131 | 766 | > 100 | CC(C)C[C@H](NC(=O)[C@H](C/C=C/c1ccccc1)NC(=O)[C@@H]1CC=CC[C@H](N)C(=O)N[C@@H](CCCCN)C(=O)N[C@@H](CCCCN)C(=O)N1)C(=O)O [compound 161, c[G(All)KKG(All)]A(styryl) L] (H-[AllylGly]KK[AllylGly][Ala(E-styryl)]L-OH; staple 1-4)
16 | 0.0485 | 2061 | > 100 | CC(C)C[C@H](NC(=O)[C@H](Cc1ccc(-c2ccccc2)cc1)NC(=O)[C@@H]1CC=CC[C@H](N)C(=O)N[C@@H](CCCCN)C(=O)N[C@@H](CCCCN)C(=O)N1)C(=O)O [compound 139, c[G(All)KKG(All)]A (biphenyl)L] (H-[AllylGly]KK[AllylGly][Bip]L-OH; staple 1-4)
17 | 0.631 | 158 | > 100 | CC(C)C[C@H](NC(=O)[C@@H](NC(=O)[C@@H]1CC=CC[C@H](N)C(=O)N[C@@H](CCCCN)C(=O)N[C@@H](CCCCN)C(=O)N1)C(c1ccccc1)c1ccccc1)C(=O)O [compound 140, c[G(All)KKG(All)]A (diphenyl)L] (H-[AllylGly]KK[AllylGly][Dip]L-OH; staple 1-4)
18 | 0.0459 | 2179 | > 100 | CC1(C(=O)N[C@@H](Cc2ccc(O)cc2)C(=O)N[C@@H](CC2CCCC2)C(=O)O)CCCC=CCCC(=O)N[C@@H](CCCCN)C(=O)N[C@@H](CCCCN)C(=O)N1 (stereo partly drawn) [compound 135, c[K(Pentenoyl)KG(alpha-Me-(4-pentenyl))]YA(cyclopentyl)]
19 | 0.102 | 979 | > 100 | CC(C)C[C@H](NC(=O)[C@H](Cc1csc2ccccc12)NC(=O)[C@@H]1CC=CC[C@H](N)C(=O)N[C@@H](CCCCN)C(=O)N[C@@H](CCCCN)C(=O)N1)C(=O)O [compound 168, c[G(All)KKG(All)]A(3-benzothienyl)L] (H-[AllylGly]KK[AllylGly][Bta]L-OH; staple 1-4)
